Test results reported in PubChem BioAssay AID1259407 (Chemical Carcinogenesis Research Information System (CCRIS), 2018).
Activity calls are given as the source filed them. How the calls were made is not given here.

System: CCRIS mutagenicity, Ames/micronucleus/aberration tests
Experiment: CCRIS mutagenicity studies
[1] = Test System: AMES SALMONELLA TYPHIMURIUM, Strain/Indicator: TA98, Metabolic Activation: NONE, Method: STANDARD PLATE
[2] = Test System: AMES SALMONELLA TYPHIMURIUM, Strain/Indicator: TA100, Metabolic Activation: NONE, Method: STANDARD PLATE
[3] = Test System: MOUSE LYMPHOMA, Strain/Indicator: L5178Y (TK+/TK-), Metabolic Activation: NONE, Method: SUSPENSION/PLATE
[4] = Test System: MOUSE LYMPHOMA, Strain/Indicator: L5178Y (TK+/TK-), Metabolic Activation: RAT, LIVER, S-9, AROCLOR 1254, Method: SUSPENSION/PLATE

SMILES: O=C1CCC(=O)N1Br
- mutagenic call (Test System: AMES SALMONELLA TYPHIMURIUM, Strain/Indicator: TA98, Metabolic Activation: HAMSTER, LIVER, S-9, AROCLOR 1254 (10%), Method: STANDARD PLATE): inactive; negative
- mutagenic call [1]: inactive; negative
- mutagenic call (Test System: AMES SALMONELLA TYPHIMURIUM, Strain/Indicator: TA98, Metabolic Activation: RAT, LIVER, S-9, AROCLOR 1254 (10%), Method: STANDARD PLATE): inactive; negative
- mutagenic call (Test System: AMES SALMONELLA TYPHIMURIUM, Strain/Indicator: TA100, Metabolic Activation: HAMSTER, LIVER, S-9, AROCLOR 1254 (10%), Method: STANDARD PLATE): active; positive
- mutagenic call [2]: inactive; negative
- mutagenic call (Test System: AMES SALMONELLA TYPHIMURIUM, Strain/Indicator: TA100, Metabolic Activation: RAT, LIVER, S-9, AROCLOR 1254 (10%), Method: STANDARD PLATE): active; positive
- mutagenic call [3]: active; positive. reevaluation of results: equivocal
- mutagenic call [4]: inactive; negative. reevaluation of results: negative

SMILES: CCN(CC)CCCN
- mutagenic call (Test System: AMES SALMONELLA TYPHIMURIUM, Strain/Indicator: TA98, Metabolic Activation: NONE, Method: PREINCUBATION): inactive; negative
- mutagenic call (Test System: AMES SALMONELLA TYPHIMURIUM, Strain/Indicator: TA98, Metabolic Activation: RAT, LIVER, S-9, PCB, Method: PREINCUBATION): inactive; negative
- mutagenic call (Test System: AMES SALMONELLA TYPHIMURIUM, Strain/Indicator: TA100, Metabolic Activation: NONE, Method: PREINCUBATION): inactive; negative
- mutagenic call (Test System: AMES SALMONELLA TYPHIMURIUM, Strain/Indicator: TA100, Metabolic Activation: RAT, LIVER, S-9, PCB, Method: PREINCUBATION): inactive; negative

SMILES: Nc1ccc(S(=O)(=O)Nc2nccs2)cc1
- mutagenic call (Test System: AMES SALMONELLA TYPHIMURIUM, Strain/Indicator: TA98, Metabolic Activation: HAMSTER, LIVER, S-9, AROCLOR 1254, Method: STANDARD PLATE): inactive; negative
- mutagenic call [1]: inactive; negative
- mutagenic call (Test System: AMES SALMONELLA TYPHIMURIUM, Strain/Indicator: TA98, Metabolic Activation: RAT, LIVER, S-9, AROCLOR 1254, Method: STANDARD PLATE): inactive; negative
- mutagenic call (Test System: AMES SALMONELLA TYPHIMURIUM, Strain/Indicator: TA100, Metabolic Activation: HAMSTER, LIVER, S-9, AROCLOR 1254, Method: STANDARD PLATE): inactive; negative
- mutagenic call [2]: inactive; negative
- mutagenic call (Test System: AMES SALMONELLA TYPHIMURIUM, Strain/Indicator: TA100, Metabolic Activation: RAT, LIVER, S-9, AROCLOR 1254, Method: STANDARD PLATE): inactive; negative
- mutagenic call (Test System: AMES SALMONELLA TYPHIMURIUM, Strain/Indicator: TA1535, Metabolic Activation: HAMSTER, LIVER, S-9, AROCLOR 1254, Method: STANDARD PLATE): inactive; negative
- mutagenic call (Test System: AMES SALMONELLA TYPHIMURIUM, Strain/Indicator: TA1535, Metabolic Activation: NONE, Method: STANDARD PLATE): inactive; negative
- mutagenic call (Test System: AMES SALMONELLA TYPHIMURIUM, Strain/Indicator: TA1535, Metabolic Activation: RAT, LIVER, S-9, AROCLOR 1254, Method: STANDARD PLATE): inactive; negative
- mutagenic call (Test System: AMES SALMONELLA TYPHIMURIUM, Strain/Indicator: TA1537, Metabolic Activation: HAMSTER, LIVER, S-9, AROCLOR 1254, Method: STANDARD PLATE): inactive; negative
- mutagenic call (Test System: AMES SALMONELLA TYPHIMURIUM, Strain/Indicator: TA1537, Metabolic Activation: NONE, Method: STANDARD PLATE): inactive; negative
- mutagenic call (Test System: AMES SALMONELLA TYPHIMURIUM, Strain/Indicator: TA1537, Metabolic Activation: RAT, LIVER, S-9, AROCLOR 1254, Method: STANDARD PLATE): inactive; negative
- mutagenic call (Test System: AMES SALMONELLA TYPHIMURIUM, Strain/Indicator: TA1538, Metabolic Activation: HAMSTER, LIVER, S-9, AROCLOR 1254, Method: STANDARD PLATE): inactive; negative
- mutagenic call (Test System: AMES SALMONELLA TYPHIMURIUM, Strain/Indicator: TA1538, Metabolic Activation: NONE, Method: STANDARD PLATE): inactive; negative
- mutagenic call (Test System: AMES SALMONELLA TYPHIMURIUM, Strain/Indicator: TA1538, Metabolic Activation: RAT, LIVER, S-9, AROCLOR 1254, Method: STANDARD PLATE): inactive; negative
- mutagenic call [3]: inactive; negative. reevaluation of results: negative
- mutagenic call [4]: inactive; negative. reevaluation of results: negative

SMILES: COC(=O)CCl
- mutagenic call (Test System: AMES SALMONELLA TYPHIMURIUM, Strain/Indicator: TA102, Metabolic Activation: NONE, Method: STANDARD PLATE): inactive; negative
- mutagenic call (Test System: AMES SALMONELLA TYPHIMURIUM, Strain/Indicator: TA2638, Metabolic Activation: NONE, Method: STANDARD PLATE): inactive; negative
- mutagenic call (Test System: E. COLI, Strain/Indicator: WP2 (PKM101), Metabolic Activation: NONE, Method: STANDARD PLATE): inactive; negative
- mutagenic call (Test System: E. COLI, Strain/Indicator: WP2 UVRA (PKM101), Metabolic Activation: NONE, Method: STANDARD PLATE): inactive; negative

SMILES: CC(C)(O)[C@H]1CC[C@@](C)([C@H]2[C@@H](O)C[C@@]3(C)[C@@H]4CC[C@H]5C(C)(C)C(=O)CC[C@@]56C[C@@]46CC[C@]23C)O1
- mutagenic call (End Point: IN VITRO MICRONUCLEUS, Test System: HUMAN PERIPHERAL LYMPHOCYTES, Metabolic Activation: NONE): inactive; negative

SMILES: ClCc1ccc(Br)cc1
- mutagenic call [2]: inactive; negative
